According to ChEMBL document CHEMBL4482306, “Methods for inhibiting fascin” (2014):
One block for each molecule: values may come before it. Calls of active or inactive are those of the source. The rule behind the calls is not given here.

Legend:
4T1 [1] = test: Antimigratory activity against mouse 4T1 cells assessed as inhibition of cell migration incubated for 6 hrs by crystal violet staining based Boyden-Chamber cell migration assay; assay type: functional; conditions: 4T1, 6 h
4T1 [2] = test: Antitumor activity against mouse 4T1 cells implanted in Balb/c mouse mouse assessed as inhibition of breast tumor metastasis at 30 mg/kg dosed daily for 2 weeks starting 7 days post tumor cell implantation and measured on day 28 by 6-thioguanine clonogenic assay; assay type: functional, organism-based
Fascin (Homo sapiens) = Fascin (Homo sapiens) (UniProt Q16658); test: Inhibition of GST-tagged recombinant human fascin 1 expressed in Escherichia coli BL21/DE3 assessed as average fiber thickness at 30 uM pre-incubated for 30 mins before polymerized actin addition and followed by Alexa fluro 488 phalloidin addition and measured after 1 hr under dark condition (reference value: 0.39 a.u)
4T1 [3] = test: Antitumor activity against mouse 4T1 cells implanted in Balb/c mouse mouse assessed as inhibition of breast tumor metastasis at 8 mg/kg dosed daily for 2 weeks starting 7 days post tumor cell implantation and measured on day 28 by 6-thioguanine clonogenic assay; assay type: functional, organism-based

- Activity (Fascin (Homo sapiens)): 0.35 a.u.
Compound: O=[N+]([O-])c1ccc(Cl)c(S(=O)(=O)Nc2nc3ccc(Cl)cc3s2)c1
- inhibition (4T1 [3]): Active

- IC50 (4T1 [1]): > 30 µM
Compound: O=C1C(Sc2nc[nH]n2)=C/C(=N/S(=O)(=O)c2ccccc2)c2ccccc21

Further lines, the molecule ahead of its results:

Compound: CCOc1ccc(S(=O)(=O)Nc2cc(Sc3nc[nH]n3)c(O)c3ccccc23)cc1
- IC50 (4T1 [1]): > 20 µM

Compound: COc1ccc(S(=O)(=O)Nc2cc(Sc3nc[nH]n3)c(O)c3ccccc23)cc1
- inhibition (4T1 [2]): Active

Compound: c1ccc(Nc2nc(-c3ccccc3)[n+](-c3ccccc3)s2)cc1
- IC50 (4T1 [1]): > 50 µM

Compound: Cc1ccc(S(=O)(=O)Nc2cc(Sc3nc[nH]n3)c(O)c3ccccc23)c(C)c1
- IC50 (4T1 [1]): > 30 µM
